The values that follow come from ChEMBL document CHEMBL1208753, “Peptide deformylase inhibitors with retro-amide scaffold: synthesis and structure-activity relationships” (Bioorg Med Chem Lett, 2010).

Molecules are shown by their SMILES. pIC50: −log10 of the molar value. Values after ≈ are worked out from the molar mass of the structure shown.

In experiment [1] the test system is Haemophilus influenzae. Kind of experiment: Antimicrobial activity against Haemophilus influenzae ATCC 51907 after 24 hrs. Type of experiment: functional. The following applies: ATCC 51907, 24 h.
In experiment [2] the target is T1, Peptide deformylase (Pseudomonas aeruginosa (strain ATCC 15692 / PAO1 / 1C / PRS 101 / LMG12228), UniProt Q9I7A8).
T1 sequence (Q9I7A8 whole entry): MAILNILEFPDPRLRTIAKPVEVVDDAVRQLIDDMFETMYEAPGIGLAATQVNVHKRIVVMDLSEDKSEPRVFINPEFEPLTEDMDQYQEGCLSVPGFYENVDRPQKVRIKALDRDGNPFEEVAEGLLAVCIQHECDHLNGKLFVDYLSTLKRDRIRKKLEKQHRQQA
Kind of experiment: Inhibition of Pseudomonas aeruginosa Peptide deformylase by fluorescence analysis.

In experiment [3] the test system is Streptococcus pneumoniae. Kind of experiment: Antimicrobial activity against Streptococcus pneumoniae ATCC 6305 after 48 hrs. Type of experiment: functional. The following applies: ATCC 6305, 48 h.
Experiment [4] relates to Moraxella catarrhalis. The experiment can be described thus: Antimicrobial activity against Moraxella catarrhalis ATCC 43617 after 48 hrs. The following applies: ATCC 43617, 48 h. The experiment is classed as functional.

Take `COc1ccccc1NC(=O)N[C@@H](Cc1ccccc1)C(=O)N(CC(=O)NO)CC1CCCC1`: the MIC in experiment [1] is 25 µg/mL (≈ 53.4 µM); in experiment [3] it was 25 µg/mL (≈ 53.4 µM); in experiment [4], 12.5 µg/mL (≈ 26.7 µM). The pIC50 – broadly, −log10 of the IC50, conventionally taken in molar units – in experiment [2] was 7.21.
`COCCNC(=O)N[C@H](C(=O)N(CC(=O)NO)CC1CCCC1)C(C)(C)C`: the MIC came out at 6.3 µg/mL (≈ 16.3 µM) in experiment [1], 6.3 µg/mL (≈ 16.3 µM) in experiment [3] and 0.1 µg/mL (≈ 0.259 µM) in experiment [4]. Further, the pIC50 in experiment [2] is 7.38.
Consider `CC(C)(C)[C@H](NC(=O)c1ccccc1)C(=O)N(CC(=O)NO)CC1CCCC1`, for which the MIC is 3.2 µg/mL (≈ 8.22 µM) in experiment [1], 12.5 µg/mL (≈ 32.1 µM) in experiment [3] and 0.1 µg/mL (≈ 0.257 µM) in experiment [4]. This compound had a pIC50 in experiment [2] of 7.39.
With `CC(C)C(=O)N[C@H](C(=O)N(CC(=O)NO)CC1CCCC1)C(C)(C)C`, the MIC in experiment [1] was 50 µg/mL (≈ 141 µM); in experiment [3] it was 100 µg/mL (≈ 281 µM); in experiment [4], 0.8 µg/mL (≈ 2.25 µM). The negative logarithm of the IC50 (pIC50) in experiment [2] was 7.28.
In the same order, the values of `COc1ccccc1NC(=O)N[C@H](C(=O)N(CC(=O)NO)CC1CCCC1)C(C)C` are 0.8 µg/mL (≈ 1.9 µM), 0.8 µg/mL (≈ 1.9 µM), 0.1 µg/mL (≈ 0.238 µM) and 7.89.
In the case of `CC(C)(C)[C@H](NC(=O)Nc1ccccn1)C(=O)N(CC(=O)NO)CC1CCCC1`, the values for the MIC in experiment [1], in experiment [3] and in experiment [4] were 0.8 µg/mL (≈ 1.97 µM), 12.5 µg/mL (≈ 30.8 µM) and 0.1 µg/mL (≈ 0.247 µM), respectively. Moreover, the pIC50 in experiment [2] is 7.27.
In the same order, the values of `CC(C)(C)[C@H](NC(=O)N1CCOCC1)C(=O)N(CC(=O)NO)CC1CCCC1` are 12.5 µg/mL (≈ 31.4 µM), 25 µg/mL (≈ 62.7 µM), 0.2 µg/mL (≈ 0.502 µM) and 7.55.
With `COc1ccccc1NC(=O)N[C@H](C(=O)N(CC(=O)NO)CC1CC1)C(C)(C)C`, the MIC in experiment [1] stood at 6.3 µg/mL (≈ 15.5 µM); in experiment [3], 12.5 µg/mL (≈ 30.8 µM); in experiment [4], 1.6 µg/mL (≈ 3.94 µM). This compound gave a negative logarithm of the IC50 (pIC50) in experiment [2] of 7.82.
In the same order, the values of `COc1ccccc1NC(=O)N1CCC[C@H]1C(=O)N(CC(=O)NO)CC1CCCC1` are 200 µg/mL (≈ 478 µM), 200 µg/mL (≈ 478 µM), 50 µg/mL (≈ 119 µM) and 6.94.
In the same order, the values of `COc1ccccc1NC(=O)N[C@H](C(=O)N(CCC(C)C)CC(=O)NO)C(C)(C)C` are 0.8 µg/mL (≈ 1.89 µM), 0.8 µg/mL (≈ 1.89 µM), 0.1 µg/mL (≈ 0.237 µM) and 7.68.
In the same order, the values of `CC(C)(C)[C@H](NC(=O)Nc1ccccc1)C(=O)N(CC(=O)NO)CC1CCCC1` are 0.4 µg/mL (≈ 0.989 µM), 3.2 µg/mL (≈ 7.91 µM), 0.1 µg/mL (≈ 0.247 µM) and 7.77.
`COc1ccccc1NC(=O)N[C@H](C(=O)N(CCC1CCCC1)CC(=O)NO)C(C)(C)C`: the results for the MIC in experiment [1], in experiment [3] and in experiment [4] were 0.8 µg/mL (≈ 1.78 µM), 0.4 µg/mL (≈ 0.892 µM) and 0.1 µg/mL (≈ 0.223 µM), respectively. The same compound gave a pIC50 in experiment [2] of 7.51.
In the same order, the values of `CC(C)(C)[C@H](NC(=O)NC1CCCCC1)C(=O)N(CC(=O)NO)CC1CCCC1` are 6.3 µg/mL (≈ 15.3 µM), 6.3 µg/mL (≈ 15.3 µM), 0.1 µg/mL (≈ 0.244 µM) and 7.26.
In the same order, the values of `COc1ccccc1NC(=O)N[C@@H](CC(C)C)C(=O)N(CC(=O)NO)CC1CCCC1` are 3.2 µg/mL (≈ 7.36 µM), 3.2 µg/mL (≈ 7.36 µM), 0.8 µg/mL (≈ 1.84 µM) and 7.44.
Regarding `COc1ccccc1NC(=O)N[C@@H](C)C(=O)N(CC(=O)NO)CC1CCCC1`, the MIC turned out to be 12.5 µg/mL (≈ 31.9 µM) in experiment [1], 6.3 µg/mL (≈ 16.1 µM) in experiment [3] and 12.5 µg/mL (≈ 31.9 µM) in experiment [4]. This compound also showed a pIC50 in experiment [2] of 7.38.
On to `CC(C)(C)[C@H](NC(=O)c1cccs1)C(=O)N(CC(=O)NO)CC1CCCC1`, for which the MIC was 1.6 µg/mL (≈ 4.05 µM) in experiment [1], 12.5 µg/mL (≈ 31.6 µM) in experiment [3] and 0.2 µg/mL (≈ 0.506 µM) in experiment [4]. In experiment [2], this compound gave a pIC50 of 7.72.
In the same order, the values of `COc1ccccc1NC(=O)N[C@H](C(=O)N(CC(=O)NO)CC1CCC1)C(C)(C)C` are 0.4 µg/mL (≈ 0.951 µM), 0.4 µg/mL (≈ 0.951 µM), 0.1 µg/mL (≈ 0.238 µM) and 7.89.
In the same order, the values of `CC(C)(C)[C@H](NC(=O)N1CCCCC1)C(=O)N(CC(=O)NO)CC1CCCC1` are 12.5 µg/mL (≈ 31.5 µM), 12.5 µg/mL (≈ 31.5 µM), 0.8 µg/mL (≈ 2.02 µM) and 7.33.
In the same order, the values of `CC(C)(C)[C@H](NC(=O)Nc1ccncc1)C(=O)N(CC(=O)NO)CC1CCCC1` are 6.3 µg/mL (≈ 15.5 µM), 25 µg/mL (≈ 61.7 µM), 0.2 µg/mL (≈ 0.493 µM) and 7.19.
Turning to `COc1ccccc1NC(=O)N[C@H](C(=O)N(CC(=O)NO)CC1CCCC1)C(C)(C)C`, the MIC in experiment [1] was found to be 0.2 µg/mL (≈ 0.46 µM); in experiment [3] it was 0.2 µg/mL (≈ 0.46 µM); in experiment [4] it was 0.1 µg/mL (≈ 0.23 µM). Besides, in experiment [2], the negative-log IC50 (pIC50) is 7.54.
Turning to `COc1ccccc1C(=O)N[C@H](C(=O)N(CC(=O)NO)CC1CCCC1)C(C)(C)C`, the MIC in experiment [1] stood at 0.4 µg/mL (≈ 0.953 µM); in experiment [3], 50 µg/mL (≈ 119 µM); in experiment [4], 0.1 µg/mL (≈ 0.238 µM). Moreover, the negative logarithm of the IC50 (pIC50) in experiment [2] is 7.96.
As for `CC[C@@H](C)[C@H](NC(=O)Nc1ccccc1OC)C(=O)N(CC(=O)NO)CC1CCCC1`, the MIC in experiment [1] worked out at 1.6 µg/mL (≈ 3.68 µM); in experiment [3], 3.2 µg/mL (≈ 7.36 µM); in experiment [4], 0.2 µg/mL (≈ 0.46 µM). In experiment [2], this compound had a pIC50 of 7.49.
In the same order, the values of `CN(C(=O)N[C@H](C(=O)N(CC(=O)NO)CC1CCCC1)C(C)(C)C)c1ccccc1` are 25 µg/mL (≈ 59.7 µM), 50 µg/mL (≈ 119 µM), 0.4 µg/mL (≈ 0.956 µM) and 7.30.
In the same order, the values of `CC(C)(C)[C@H](NC(=O)Nc1cccnc1)C(=O)N(CC(=O)NO)CC1CCCC1` are 3.2 µg/mL (≈ 7.89 µM), 6.3 µg/mL (≈ 15.5 µM), 0.1 µg/mL (≈ 0.247 µM) and 7.31.
